From US20230416262A1, “TRPML MODULATORS” (Casma Therapeutics, Inc., priority 2020, published 2023)

Tests used:
TFEB = TFEB nuclear translocation assay; type: cell-based; settings: Homo sapiens; HeLa wt or HeLa TRPML1 KO cells, treated for 2 hrs; ratio of nuclear to ring-region TFEB intensity
Method in brief: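 HeLa wild-type or TRPML1 KO cells treated 2 h with compound at 37 °C, PFA-fixed, immunostained for TFEB (Alexa 488) with Hoechst nuclei. Imaged at ×20, four fields/well. Value is ratio of nuclear to perinuclear-ring TFEB intensity, with nuclei counts.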

THP-1 cells = assay: Lamp1 lysosomal exocytosis assay; type: cell-based; settings: Homo sapiens, 55 min, 55 min incubation, top dose 20 μM
Method in brief: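 THP-1 cells (1e5/well) exposed to a 7-point 3-fold compound series, top final 20 μM, for 55 min at 37°C. Surface Lamp1 then stained with Lamp1-PE on ice in buffer containing 80 μM Dynasore, and read by flow cytometry as PE geometric mean on live, sytox-negative singlets.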

| Compound | EC50 (TFEB) [µM] | EC50 (THP-1 cells) [µM] |
| --- | --- | --- |
| Cc1ccc2c(c1)N(S(=O)(=O)c1ccc(S(=O)(=O)N(C)C)cc1)CC21CCCC1 [Compound I-79, N,N-dimethyl-4-((6′-methylspiro[cyclopentane-1,3′-indolin]-1′-yl)sulfonyl)benzenesulfonamide] | ≤ 2 | ≤ 0.5 |
| CC1(C)COc2ccc(S(=O)(=O)N3CC4(CCCC4)c4ccccc43)cc21 [Compound I-5, 1′-[(3,3-dimethyl-2,3-dihydro-1-benzofuran-5-yl)sulfonyl]-1′,2′-dihydrospiro[cyclopentane-1,3′-indole]] | ≤ 2 | ≥ 5.01 |
| CN(C)S(=O)(=O)c1ccc(S(=O)(=O)N2CC3(CCN(C(=O)C(C)(C)C)C3)c3ccccc32)cc1 (centres unmarked) [Compound I-73, 4-{[1′-(2,2-dimethylpropanoyl)-1,2-dihydrospiro[indole-3,3′-pyrrolidin]-1-yl]sulfonyl}-N,N-dimethylbenzene-1-sulfonamide] | 2.01 to 8 | ≥ 5.01 |
| CN(C)S(=O)(=O)c1ccc(S(=O)(=O)N2CC3(CCN(C(=O)OCc4ccccc4)CC3)c3ccccc32)cc1 [Compound I-104] | ≤ 2 | ≤ 0.5 |
| CC1(C)Cc2cc(S(=O)(=O)N3CC4(CCCC4)c4ccccc43)ccc2O1 [Compound I-2, 1′-[(2,2-dimethyl-2,3-dihydro-1-benzofuran-5-yl)sulfonyl]-1′,2′-dihydrospiro[cyclopentane-1,3′-indole]] | 2.01 to 8 | ≥ 5.01 |
| CN(C)S(=O)(=O)c1ccc(S(=O)(=O)N2CC3(CN(CC4CCOCC4)C3)c3ccccc32)cc1 [Compound I-101, N,N-dimethyl-4-({1-[(oxan-4-yl)methyl]-1′,2′-dihydrospiro[azetidine-3,3′-indol]-1′-yl}sulfonyl)benzene-1-sulfonamide] | 2.01 to 8 | ≥ 5.01 |
| O=C(OCc1ccccc1)N1CCC2(C1)CN(S(=O)(=O)c1ccc(C(F)F)cc1)c1ccccc12 (centres unmarked) [Compound I-91, benzyl 1-[4-(difluoromethyl)benzenesulfonyl]-1,2-dihydrospiro[indole-3,3′-pyrrolidine]-1′-carboxylate] | 2.01 to 8 | ≥ 5.01 |
| CC1(C)COc2ccc(S(=O)(=O)N3CC4(CCCC4)c4c(F)cccc43)cc21 [Compound I-100, 1′-[(3,3-dimethyl-2,3-dihydro-1-benzofuran-5-yl)sulfonyl]-4′-fluoro-1′,2′-dihydrospiro[cyclopentane-1,3′-indole]] | ≤ 2 | ≥ 5.01 |
| CN(C)S(=O)(=O)c1ccc(S(=O)(=O)N2CC3(CCCCC3)c3ccccc32)cc1 [Compound I-99, 4-({1′,2′-dihydrospiro[cyclohexane-1,3′-indol]-1′-yl}sulfonyl)-N,N-dimethylbenzene-1-sulfonamide] | ≤ 2 | ≤ 0.5 |
| O=S(=O)(c1ccc(C(F)F)cc1)N1CC2(CCN(CC(F)(F)F)C2)c2ccccc21 (centres unmarked) [Compound I-92, 1-[4-(difluoromethyl)benzenesulfonyl]-1′-(2,2,2-trifluoroethyl)-1,2-dihydrospiro[indole-3,3′-pyrrolidine]] | 2.01 to 8 | ≥ 5.01 |
| CN(C)S(=O)(=O)c1ccc(S(=O)(=O)N2CC3(CCCC3)c3c(F)cccc32)cc1 [Compound I-95, 4-({4′-fluoro-1′,2′-dihydrospiro[cyclopentane-1,3′-indol]-1′-yl}sulfonyl)-N,N-dimethylbenzene-1-sulfonamide] | ≤ 2 | ≤ 0.5 |
| CN(C)S(=O)(=O)c1ccc(S(=O)(=O)N2CC3(CCN(C4CCOC4)CC3)c3ccccc32)cc1 (centres unmarked) [Compound I-103, N,N-dimethyl-4-{[1′-(oxolan-3-yl)-1,2-dihydrospiro[indole-3,4′-piperidin]-1-yl]sulfonyl}benzene-1-sulfonamide] | 2.01 to 8 | ≥ 5.01 |
| CN(C)S(=O)(=O)c1ccc(S(=O)(=O)N2CC3(CN(C(=O)OCc4ccccc4)C3)c3ccccc32)cc1 [Compound I-105, benzyl 1′-[4-(dimethylsulfamoyl)benzenesulfonyl]-1′,2′-dihydrospiro[azetidine-3,3′-indole]-1-carboxylate] | ≤ 2 | ≥ 5.01 |
| O=S(=O)(c1ccc(C(F)F)cc1)N1CC2(CCN(CC(F)(F)F)CC2)c2ccccc21 [Compound I-86, 1-[4-(difluoromethyl)benzenesulfonyl]-1′-(2,2,2-trifluoroethyl)-1,2-dihydrospiro[indole-3,4′-piperidine]] | ≤ 2 | ≥ 5.01 |
| Cc1cccc(S(=O)(=O)N2CC3(CCCC3)c3ccccc32)c1 [Compound I-74, 1′-(3-methylbenzenesulfonyl)-1′,2′-dihydrospiro[cyclopentane-1,3′-indole]] | 2.01 to 8 | ≥ 5.01 |
| CN(C)S(=O)(=O)c1ccc(S(=O)(=O)N2CC3(CCCC3)n3nccc32)cc1 [Compound I-124, 4-({1′,2′-dihydrospiro[cyclopentane-1,3′-pyrazolo[1,5-a]imidazol]-1′-yl}sulfonyl)-N,N-dimethylbenzene-1-sulfonamide] | ≥ 10 | ≥ 5.01 |
| O=S(=O)(c1ccc(C(F)F)cc1)N1CC2(CCN(Cc3ccccn3)CC2)c2ccccc21 [Compound I-164] | ≤ 2 | ≥ 5.01 |

Results, then the molecule that gave them:

| EC50 (TFEB) [µM] | EC50 (THP-1 cells) [µM] | Compound |
| --- | --- | --- |
| ≥ 10 | ≥ 5.01 | Cc1nn2c(c1C)N(S(=O)(=O)c1ccc(S(=O)(=O)N(C)C)cc1)CC21CCCCC1 [Compound I-154, 4-({6′,7′-dimethyl-1′,2′-dihydrospiro[cyclohexane-1,3′-pyrazolo[1,5-a]imidazol]-1′-yl}sulfonyl)-N,N-dimethylbenzene-1-sulfonamide] |
| ≤ 2 | ≤ 0.5 | O=C(OCc1ccccc1)N1CCC2(CC1)CN(S(=O)(=O)c1ccc(C(F)F)cc1)c1cccnc12 [Compound I-134, benzyl 1′-[4-(difluoromethyl)benzenesulfonyl]-1′,2′-dihydrospiro[piperidine-4,3′-pyrrolo[3,2-b]pyridine]-1-carboxylate] |
| ≤ 2 | 0.51 to 1 | O=C(NC1CCOc2ccccc21)N1CCC2(CC1)CN(S(=O)(=O)c1ccc(C(F)F)cc1)c1ccccc12 (centres unmarked) [Compound I-223, N-(chroman-4-yl)-1-((4-(difluoromethyl)phenyl)sulfonyl)spiro[indoline-3,4′-piperidine]-1′-carboxamide] |
| ≤ 2 | ≥ 5.01 | O=C(Oc1ccccc1)N1CCC2(CC1)CN(S(=O)(=O)c1ccc(C(F)F)cc1)c1ccccc12 [Compound I-169, phenyl 1-((4-(difluoromethyl)phenyl)sulfonyl)spiro[indoline-3,4′-piperidine]-1′-carboxylate] |
| ≥ 10 | ≥ 5.01 | CC(C)C(=O)N1CC2(CCN(C(=O)OCc3ccccc3)CC2)c2ccccc21 [Compound I-190, benzyl 1-(2-methylpropanoyl)-1,2-dihydrospiro[indole-3,4′-piperidine]-1′-carboxylate] |
| ≥ 10 | ≥ 5.01 | O=C(OCc1ccccc1)N1CCC2(CC1)CN(C(=O)Cc1ccc(C(F)F)cc1)c1ccccc12 [Compound I-246, benzyl 1-(2-(4-(difluoromethyl)phenyl)acetyl)spiro[indoline-3,4′-piperidine]-1′-carboxylate] |
| 2.01 to 8 | ≥ 5.01 | O=C(OCc1ccccc1)N1CCC2(CC1)CN(C(=O)C1(c3ccccc3)CC1)c1ccccc12 [Compound I-191, benzyl 1-(1-phenylcyclopropanecarbonyl)-1,2-dihydrospiro[indole-3,4′-piperidine]-1′-carboxylate] |
| ≥ 10 | ≥ 5.01 | O=C(C1CC1)N1CCC2(CC1)CN(S(=O)(=O)c1ccc(C(F)F)cc1)c1ccccc12 [Compound I-162, 1′-cyclopropanecarbonyl-1-[4-(difluoromethyl)benzenesulfonyl]-1,2-dihydrospiro[indole-3,4′-piperidine]] |
| ≤ 2 | ≤ 0.5 | CC(C)OC(=O)N1CCC2(CC1)CN(S(=O)(=O)c1ccc(C(F)F)cc1)c1ccccc12 [Compound I-160, propan-2-yl 1-[4-(difluoromethyl)benzenesulfonyl]-1,2-dihydrospiro[indole-3,4′-piperidine]-1′-carboxylate] |
| 2.01 to 8 | ≥ 5.01 | O=C(Nc1ccc2c(c1)OCO2)N1CCC2(CC1)CN(S(=O)(=O)c1ccc(C(F)F)cc1)c1ccccc12 [Compound I-220, N-(benzo[d][1,3]dioxol-5-yl)-1-((4-(difluoromethyl)phenyl)sulfonyl)spiro[indoline-3,4′-piperidine]-1′-carboxamide] |
| ≤ 2 | ≤ 0.5 | O=C(OCc1ccccc1)N1CCC2(CC1)CN(S(=O)(=O)c1ccc(C(F)(F)C3CC3)cc1)c1ccccc12 [Compound I-139, benzyl 1-((4-(cyclopropyldifluoromethyl)phenyl)sulfonyl)spiro[indoline-3,4′-piperidine]-1′-carboxylate] |
| ≤ 2 | ≥ 5.01 | O=C(OCc1ccccc1)N1CCC2(CC1)CN(S(=O)(=O)c1ccc(C(F)F)cc1)c1c(F)cccc12 [Compound I-133, benzyl 1-((4-(difluoromethyl)phenyl)sulfonyl)-7-fluorospiro[indoline-3,4′-piperidine]-1′-carboxylate] |
| 2.01 to 8 | ≥ 5.01 | O=C(Nc1cccc(C(F)F)c1)N1CCC2(CC1)CN(S(=O)(=O)c1ccc(C(F)F)cc1)c1ccccc12 [Compound I-221, N-(3-(difluoromethyl)phenyl)-1-((4-(difluoromethyl)phenyl)sulfonyl)spiro[indoline-3,4′-piperidine]-1′-carboxamide] |
| ≥ 10 | ≥ 5.01 | Cc1cc2n(n1)C1(CCCCC1)CN2S(=O)(=O)c1ccc(C(F)F)cc1 [Compound I-148, 1′-[4-(difluoromethyl)benzenesulfonyl]-6′-methyl-1′,2′-dihydrospiro[cyclohexane-1,3′-pyrazolo[1,5-a]imidazole]] |
